What was measured:
[1] = biological target: T1, recombinant human WRN (Homo sapiens, UniProt Q14191); assay: Inhibition of WRN enzyme activity (ATPase), ADP-Glo Kinase Assay; assay type: biochemical; conditions: WRN protein 5 nM, Flap 0.1 nM, ATP 30 µM; read-out: IC50
T1 construct: purchased BPS 101264
Method in brief: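 ATPase activity was measured by ADP-Glo luminescence after a 10-min room-temperature reaction with 30 µM ATP and 0.1 nM Flap26 oligonucleotide substrate. The 5 nM WRN had first been exposed to compound (0.004–1000 nM) for 15 min in pH 7.5 Tris buffer with 2 mM MgCl2. IC50 values came from log-concentration regression against the DMSO control.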

[2] = test system: RL95-2 cells; assay: Inhibition of RL95-2 cell proliferation (CellTiter-Glo); assay type: cell-based; conditions: Homo sapiens; RL95-2 cells (MSI-H), 120 hours
Protocol: (§1) The following method was used to determine the effect of the compounds of the present disclosure on RL95-2 cell proliferation. RL95-2 cells (MSI-H cells) were purchased from Cell Resource Center of Shanghai Institutes for Biological Sciences, Chinese Academy of Sciences, and cultured in DMEM/F12 medium (Gibco, catalog No. A4192001) containing 10% fetal bovine serum, 100 U penicillin, and 100 µg/mL streptomycin. Cell viability was determined by CellTiter-Glo® Luminescent Cell Viability Assay kit (Promega, catalog No. G7573).
(§2) The experiment was performed according to the steps of the kit manual, which is briefly described as follows: test compounds were first dissolved in DMSO to prepare 10 mM stock solutions, and then diluted with medium to prepare test samples, with final compound concentrations ranging from 10000 nM to 1.52 nM. Cells in logarithmic growth phase were seeded into 96-well cell culture plates at a density of 500 cells per well and cultured overnight at 37 °C in a 5% CO2 incubator, and then test compounds were added and cultivation continued for 120 hours. After the cultivation was completed, 50 µL of CellTiter-Glo detection reagent was added to each well, shaken for 5 minutes, and then left to stand for 10 minutes. Luminescence values of each well were read on a microplate reader using Luminescence mode. The percentage inhibition at each concentration point was calculated by comparison with the control group (0.1% DMSO), and then IC50 values for the compounds for inhibition of cell proliferation were obtained using nonlinear regression analysis of compound concentration logarithm versus inhibition rate in GraphPad Prism 9 software, as shown in Table 3.
The IC50 value results of the compounds of the present disclosure are represented by A, wherein "A" indicates 1 nM < IC50 ≤ 100 nM. Table 3 IC50 data for inhibition of RL95-2 cell proliferation by the compounds of the present disclosure

[3] = test system: SW48 cells; assay: Inhibition of SW48 cell proliferation (CellTiter-Glo); assay type: cell-based; conditions: Homo sapiens; SW48 cells (MSI-H), 120 hours
Protocol: as §1, with “SW48” for “RL95-2”, “American ATCC cell bank” for “Cell Resource Center of Shanghai Institutes for Biological Sciences, Chinese Academy of Sciences,”, “Leibovitz's L-15” for “DMEM/F12”, “11415064)” for “A4192001)”
as §2, with “in an air” for “in a 5% CO2”, “incubator,” for “incubator, and”, “completed, 40” for “completed, 50”, “Table 2.” for “Table 3.”
The IC50 value results of the compounds of the present disclosure are represented by A, wherein "A" indicates 1 nM < IC50 ≤ 100 nM. Table 2 IC50 data for inhibition of SW48 cell proliferation by the compounds of the present disclosure

T1 sequence (Q14191 whole entry): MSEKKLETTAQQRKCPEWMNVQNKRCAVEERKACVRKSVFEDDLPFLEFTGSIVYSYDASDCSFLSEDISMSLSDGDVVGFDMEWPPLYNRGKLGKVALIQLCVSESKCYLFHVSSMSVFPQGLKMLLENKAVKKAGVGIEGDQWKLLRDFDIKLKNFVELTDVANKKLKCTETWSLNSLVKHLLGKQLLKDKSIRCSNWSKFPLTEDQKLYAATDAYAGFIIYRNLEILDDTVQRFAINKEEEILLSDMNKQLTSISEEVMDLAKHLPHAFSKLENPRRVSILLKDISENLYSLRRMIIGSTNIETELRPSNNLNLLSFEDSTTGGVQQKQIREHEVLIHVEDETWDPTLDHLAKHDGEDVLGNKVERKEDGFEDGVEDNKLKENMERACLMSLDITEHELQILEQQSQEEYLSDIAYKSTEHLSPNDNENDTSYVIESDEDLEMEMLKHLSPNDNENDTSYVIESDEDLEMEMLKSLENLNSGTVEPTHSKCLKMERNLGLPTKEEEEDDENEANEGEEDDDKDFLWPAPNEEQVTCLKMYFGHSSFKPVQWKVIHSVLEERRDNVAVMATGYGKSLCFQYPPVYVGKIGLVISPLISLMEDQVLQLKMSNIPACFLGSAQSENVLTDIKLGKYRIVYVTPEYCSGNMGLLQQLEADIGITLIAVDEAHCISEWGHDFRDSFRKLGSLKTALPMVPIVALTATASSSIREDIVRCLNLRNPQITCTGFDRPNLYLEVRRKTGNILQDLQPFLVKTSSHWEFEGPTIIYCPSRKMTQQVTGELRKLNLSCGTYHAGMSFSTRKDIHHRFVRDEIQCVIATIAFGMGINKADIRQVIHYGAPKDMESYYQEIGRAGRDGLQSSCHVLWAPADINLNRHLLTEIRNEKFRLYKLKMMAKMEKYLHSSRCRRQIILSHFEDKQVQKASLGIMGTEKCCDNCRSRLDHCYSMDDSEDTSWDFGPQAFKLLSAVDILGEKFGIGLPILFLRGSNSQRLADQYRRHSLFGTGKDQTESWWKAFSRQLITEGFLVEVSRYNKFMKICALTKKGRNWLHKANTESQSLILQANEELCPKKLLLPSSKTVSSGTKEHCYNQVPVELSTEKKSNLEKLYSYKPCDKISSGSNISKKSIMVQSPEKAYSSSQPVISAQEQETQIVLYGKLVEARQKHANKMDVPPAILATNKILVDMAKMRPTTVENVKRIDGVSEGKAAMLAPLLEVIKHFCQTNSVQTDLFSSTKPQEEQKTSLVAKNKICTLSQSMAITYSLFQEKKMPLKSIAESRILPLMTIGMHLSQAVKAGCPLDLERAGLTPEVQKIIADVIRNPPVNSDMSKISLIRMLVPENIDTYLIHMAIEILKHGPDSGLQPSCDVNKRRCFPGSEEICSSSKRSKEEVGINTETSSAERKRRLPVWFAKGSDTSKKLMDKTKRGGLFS

| IC50 [1] | IC50 [3] | Compound | IC50 [2] |
| --- | --- | --- | --- |
| 1 to 100 nM | 1 to 100 nM | CCc1c(N2CCN(C(=O)c3ncnc(C)c3O)CC2)c(=O)n2nc(C3=CC4CC(=O)CC4C3)nc2n1CC(=O)Nc1ccc(C(F)(F)F)cc1Cl (centres unmarked) [Example 17, N-(2-chloro-4-(trifluoromethyl)phenyl)-2-(5-ethyl-6-(4-(5-hydroxy-6-methylpyrimidine-4-carbonyl)piperazin-1-yl)-7-oxo-2-(5-oxo-1,3a,4,5,6,6a-hexahydropentalen-2-yl)-[1,2,4]triazolo[1,5-a]pyrimidin-4(7H)-yl)acetamide] | 1 to 100 nM |
| 1 to 100 nM | 1 to 100 nM | CCc1c(N2CCN(C(=O)c3ncnc(C)c3O)CC2)c(=O)n2nc(C3=CC4CC4C3)nc2n1CC(=O)Nc1ccc(C(F)(F)F)cc1Cl (centres unmarked) [Example 18, 2-(2-(bicyclo[3.1.0]hex-2-en-3-yl)-5-ethyl-6-(4-(5-hydroxy-6-methylpyrimidine-4-carbonyl)piperazin-1-yl)-7-oxo-[1,2,4]triazolo[1,5-a]pyrimidin-4(7H)-yl)-N-(2-chloro-4-(trifluoromethyl)phenyl)acetamide] | 1 to 100 nM |
| < 1 nM | 1 to 100 nM | CCc1c(N2CCN(C(=O)c3ncnc(C)c3O)CC2)c(=O)n2nc(-c3cc4ccccc4o3)nc2n1CC(=O)Nc1ccc(C(F)(F)F)cc1Cl [Example 19, 2-(2-(benzofuran-2-yl)-5-ethyl-6-(4-(5-hydroxy-6-methylpyrimidine-4-carbonyl)piperazin-1-yl)-7-oxo-[1,2,4]triazolo[1,5-a]pyrimidin-4(7H)-yl)-N-(2-chloro-4-(trifluoromethyl)phenyl)acetamide] | 1 to 100 nM |
| 1 to 100 nM | 1 to 100 nM | CCc1c(N2CCN(C(=O)c3ncccc3O)CC2)c(=O)n2nc(C3=CC4CC(=O)CC4C3)nc2n1CC(=O)Nc1ccc(C(F)(F)F)cc1Cl (centres unmarked) [Example 22, N-(2-chloro-4-(trifluoromethyl)phenyl)-2-(5-ethyl-6-(4-(3-hydroxypicolinoyl)piperazin-1-yl)-7-oxo-2-(5-oxo-1,3a,4,5,6,6a-hexahydropentalen-2-yl)-[1,2,4]triazolo[1,5-a]pyrimidin-4(7H)-yl)acet amide] | 1 to 100 nM |
| 1 to 100 nM | 1 to 100 nM | CCc1c(N2CCN(C(=O)c3ncnc(C)c3O)CC2)c(=O)n2nc(C3=CCCCCC3)nc2n1CC(=O)Nc1ccc(C(F)(F)F)cc1C [Example 47, 2-(2-(cyclohept-1-en-1-yl)-5-ethyl-6-(4-(5-hydroxy-6-methylpyrimidine-4-carbonyl)piperazin-1-yl)-7-oxo-[1,2,4]triazolo[1,5-a]pyrimidin-4(7H)-yl)-N-(2-methyl-4-(trifluoromethyl)phenyl) acetamide] | 1 to 100 nM |
| 1 to 100 nM | 1 to 100 nM | CCc1c(N2CCN(C(=O)c3ncnc(C)c3O)CC2)c(=O)n2nc(C3=CCCCCC3)nc2n1CC(=O)Nc1ccc(C(F)(F)F)cc1F [Example 49, 2-(2-(cyclohept-1-en-1-yl)-5-ethyl-6-(4-(5-hydroxy-6-methylpyrimidine-4-carbonyl)piperazin-1-yl)-7-oxo-[1,2,4]triazolo[1,5-a]pyrimidin-4(7H)-yl)-N-(2-fluoro-4-(trifluoromethyl)phenyl)acetamide] | 1 to 100 nM |
| 1 to 100 nM | 1 to 100 nM | CCc1c(N2CCN(C(=O)c3ncnc(C)c3O)CC2)c(=O)n2nc(C=C3CCC3)nc2n1CC(=O)Nc1ccc(S(F)(F)(F)(F)F)cc1 [Example 53, 2-(2-(cyclobutylidenemethyl)-5-ethyl-6-(4-(5-hydroxy-6-methylpyrimidine-4-carbonyl)piperazin-1-yl)-7-oxo-[1,2,4]triazolo[1,5-a]pyrimidin-4(7H)-yl)-N-(4-(pentafluoro-λ^6-sulfaneyl)phenyl)ace tamide] | 1 to 100 nM |
| 1 to 100 nM | 1 to 100 nM | CCc1c(N2CCN(C(=O)c3ncnc(C)c3O)CC2)c(=O)n2nc(-c3ccc4sccc4c3)nc2n1CC(=O)Nc1ccc(C(F)(F)F)cc1Cl [Example 54, 2-(2-(benzo[b]thiophen-5-yl)-5-ethyl-6-(4-(5-hydroxy-6-methylpyrimidine-4-carbonyl)piperazin-1-yl)-7-oxo-[1,2,4]triazolo[1,5-a]pyrimidin-4(7H)-yl)-N-(2-chloro-4-(trifluoromethyl)phenyl)acet amide] | 1 to 100 nM |
| 1 to 100 nM | 1 to 100 nM | CCc1c(N2CCN(C(=O)c3ncnc(C)c3O)CC2)c(=O)n2nc(-c3ccc4ccsc4c3)nc2n1CC(=O)Nc1ccc(C(F)(F)F)cc1Cl [Example 55, 2-(2-(benzo[b]thiophen-6-yl)-5-ethyl-6-(4-(5-hydroxy-6-methylpyrimidine-4-carbonyl)piperazin-1-yl)-7-oxo-[1,2,4]triazolo[1,5-a]pyrimidin-4(7H)-yl)-N-(2-chloro-4-(trifluoromethyl)phenyl)acet amide] | 1 to 100 nM |
| 1 to 100 nM | 1 to 100 nM | CCc1c(N2CCN(C(=O)c3ncnc(C)c3O)CC2)c(=O)n2nc(C3=CCCCOC3)nc2n1CC(=O)Nc1ccc(S(F)(F)(F)(F)F)cc1Cl [Example 84, N-(2-chloro-4-(pentafluoro-λ^6-sulfaneyl)phenyl)-2-(5-ethyl-6-(4-(5-hydroxy-6-methylpyrimidine-4-carbonyl)piperazin-1-yl)-7-oxo-2-(2,5,6,7-tetrahydrooxepin-3-yl)-[1,2,4]triazolo[1,5-a]pyrimidin-4(7H)-yl)acetamide] | 1 to 100 nM |
| 1 to 100 nM | 1 to 100 nM | CCc1c(N2CCN(C(=O)c3ncnc(C)c3O)CC2)c(=O)n2nc(-c3ccc4occc4c3)nc2n1CC(=O)Nc1ccc(S(F)(F)(F)(F)F)cc1Cl [Example 85, 2-(2-(Benzofuran-5-yl)-5-ethyl-6-(4-(5-hydroxy-6-methylpyrimidine-4-carbonyl)piperazin-1-yl)-7-oxo-[1,2,4]triazolo[1,5-a]pyrimidin-4(7H)-yl)-N-(2-chloro-4-(pentafluoro-λ^6-sulfaneyl)phenyl) acetamide] | 1 to 100 nM |
| 1 to 100 nM | 1 to 100 nM | CCc1c(N2CCN(C(=O)c3ncnc(C)c3O)CC2)c(=O)n2nc(-c3ccc4c(c3)CCO4)nc2n1CC(=O)Nc1ccc(S(F)(F)(F)(F)F)cc1 [Example 86, 2-(2-(2,3-dihydrobenzofuran-5-yl)-5-ethyl-6-(4-(5-hydroxy-6-methylpyrimidine-4-carbonyl)piperazin-1-yl)-7-oxo-[1,2,4]triazolo[1,5-a]pyrimidin-4(7H)-yl)-N-(4-(pentafluoro-λ^6-sulfaneyl)phenyl)acetamide] | 1 to 100 nM |
| 1 to 100 nM | 1 to 100 nM | CCc1c(N2CCN(C(=O)c3ncnc(C)c3O)CC2)c(=O)n2nc(C3=CCC4(CC3)COC4)nc2n1CC(=O)Nc1ccc(S(F)(F)(F)(F)F)cc1 [Example 176, 2-(5-ethyl-6-(4-(5-hydroxy-6-methylpyrimidine-4-carbonyl)piperazin-1-yl)-7-oxo-2-(2-oxaspiro[3.5]non-6-en-7-yl)-[1,2,4]triazolo[1,5-a]pyrimidin-4(7H)-yl)-N-(4-(pentafluoro-λ^6-sulfaneyl)phenyl)acetamide] | – |
